Series [1] has as its system Bacillus Cereus. Description: agar plate disc-diffusion, antibacterial inhibition zone. Format: cell-based. As to the method:
(§1) The agar plate disc-diffusion method was applied. […] The discs were then placed onto the surface of agar plates (nutrient agar for bacteria and Sabouraud's dextrose agar for fungi) seeded with the test organism. Each plate contained 15 mL of the agar medium, previously seeded with 0.2 mL of the broth culture of each organism pregrown for 18 hours. The plates were incubated at 37° C. for 48 h, and 72 h for fungi. The inhibition zones were measured in mm. Discs impregnated with DMSO were used as a control, and its inhibition zone was subtracted from the tested compound actual inhibition zone.
For orientation: Agar diffusion results depend on both activity and mobility in agar.

In series [2] the test system is Escherichia coli. Described as above. Format: cell-based. As to the method:
as §1

In series [3] the test system is Pseudomonas aeruginosa. The series is described as above. Format: cell-based. As to the method: as §1
Series [4] concerns Staphylococcus aureus. The description is as above. Format: cell-based. The protocol:
as §1

The subject of series [5] is Aspergillus flavus. Kind of series: agar plate disc-diffusion, antifungal inhibition zone. Format: cell-based. The protocol: as §1
In series [6] the test system is Chrysosporium keratinophilum. The series is described as above. Type of series: cell-based. As to the method: as §1
For series [7], the system named is human osteosarcoma cells (MG-63). Description: cytotoxicity by SRB assay. The conditions noted are these: MG-63 cells, 0.01 μM to 100 μM for 72 h. Format: cell-based. From the text: (§2) The anticancer activity of the described synthesized compounds against highly aggressive androgen-independent metastatic human prostate cancer cells (PC3) and osteosarcoma (MG-63) cells. The human prostate cancer cells (PC3) and human osteosarcoma cells (MG-63) were obtained from Nawah Scientific Inc. (Mokatam, Cairo, Egypt) and cultured in DMEM (Dulbecco's modified eagle's medium), Gibco, USA, supplemented with fetal bovine serum (FBS) at a concentration of 10% and 100 U/mL of penicillin and streptomycin (PS). The Cells were incubated at 37° C. in a humidified environment that contained 5% CO2.
(§3) Cells were seeded in 96-well plates as aliquots of 100 μL cell suspension and incubated in a complete media for 24 h. afterward, cells were treated with 5-((2-isopropyl-5-methylphenoxy)methyl)-3-(naphthalen-2-yl)-1,2,4-oxadiazole at diverse concentrations ranging from 0.01 μM to 100 μM for 72 h. Then, cells were fixed at 4° C. for one hour with 150 μL of 10% trichloroacetic acid (TCA). […] Then, 150 μL of Tris pH 10.5 (10 mM) was added, and the absorbance was measured at 540 nm using a BMG LABTECH®-FLUOstar Omega microplate reader (Ortenberg, Germany). Half maximal inhibitory concentrations (IC50) values were calculated for each experiment using GraphPad Prism 6 software. […]
(§4) The inhibition was calculated using the following equation: Inhibition %=100−Average Viability
For orientation: The SRB assay estimates cell density from bound dye.

The subject of series [8] is human prostate cancer cells (PC3). Kind of series: cytotoxicity by SRB assay. Format: cell-based. To be noted: 0.01 μM to 100 μM for 72 h.
Excerpt: as §2, §3, §4

Series [9] concerns different microbes. Description: agar plate disc-diffusion, overall antimicrobial activity. Format: cell-based. The conditions noted are these: against different microbes (bacteria and fungi). As to the method: The agar plate disc-diffusion method was applied. Sterilized filter papers (6 mm in diameter) were wetted with 10 μL of a solution of 5-((2-isopropyl-5-methylphenoxy)methyl)-3-(naphthalen-2-yl)-1,2,4-oxadiazole (3) to be tested, containing 10 mg/mL in DMSO, and the discs were allowed to air dry. The discs were then placed onto the surface of agar plates (nutrient agar for bacteria and Sabouraud's dextrose agar for fungi) seeded with the test organism. Each plate contained 15 mL of the agar medium, previously seeded with 0.2 mL of the broth culture of each organism pregrown for 18 hours. The plates were incubated at 37° C. for 48 h, and 72 h for fungi. The inhibition zones were measured in mm. Discs impregnated with DMSO were used as a control, and its inhibition zone was subtracted from the tested compound actual inhibition zone.

Setting [10] is: A = concentration of comp. = 10,000 μL.
[11] abbreviates: B = concentration of comp. = 30,000 μL.
The mark [12] stands for this setting: C = concentration of comp. = 50,000 μL.

SMILES strings stand for the structures.

For orientation: melting point means the temperature, or range, at which the solid turns liquid.

Turning to `O=C(O)c1cn(C2CC2)c2cc(N3CCNCC3)c(F)cc2c1=O` [Cip., ciprofloxacin, reference compound], the inhibition zone in series [1] (setting [10]) came to 29 mm; in [1] (setting [11]), 30 mm; in series [1] (setting [12]) it was 42 mm; in [2] (setting [10]), 30 mm; in series [2] (setting [11]), 39 mm; in series [2] (setting [12]) it was 60 mm. Besides, the inhibition zone in [3] (setting [10]) was determined as 29 mm; in [3] (setting [11]), 30 mm; in [3] (setting [12]), 53 mm; in series [4] (setting [10]), 43 mm; in [4] (setting [11]) it was 44 mm; in series [4] (setting [12]), 53 mm. Also, the inhibition zone in series [5] (setting [10]) stood at 29 mm; in series [5] (setting [11]), 30 mm; in series [5] (setting [12]) it was 42 mm; in series [6] (setting [10]), 29 mm; in series [6] (setting [11]), 30 mm; in [6] (setting [12]), 53 mm.

`Cc1ccc(C(C)C)c(OCc2nc(-c3ccc4ccccc4c3)no2)c1` [compound 3, 5-((2-isopropyl-5-methylphenoxy)methyl)-3-(naphthalen-2-yl)-1,2,4-oxadiazole] came in with a melting point of 187 to 188 °C. Also, the inhibition zone in [1] (setting [10]) is on record as 24 mm. The molecule also returned an inhibition zone in series [1] (setting [11]) of 27 mm. This molecule also came in with an inhibition zone in [1] (setting [12]) of 38 mm. In series [2] (setting [10]), this molecule had an inhibition zone of 28 mm. The molecule also displayed an inhibition zone in series [2] (setting [11]) of 34 mm. The molecule further came in with an inhibition zone in [2] (setting [12]) of 49 mm. For the same molecule, the inhibition zone in series [3] (setting [10]) amounted to 25 mm. Besides, the inhibition zone in [3] (setting [11]) turned out to be 29 mm. For the same molecule, the inhibition zone in [3] (setting [12]) was found to be 40 mm. In series [4] (setting [10]), this molecule showed an inhibition zone of 17 mm. The same molecule yielded an inhibition zone in series [4] (setting [11]) of 24 mm. The molecule also gave an inhibition zone in series [4] (setting [12]) of 32 mm. The inhibition zone in series [5] (setting [10]) turned out to be 20 mm. The inhibition zone in series [5] (setting [11]) came to 25 mm. In addition, the inhibition zone in [5] (setting [12]) came to 33 mm. In series [6] (setting [10]), this molecule yielded an inhibition zone of 26 mm. The molecule also gave an inhibition zone in series [6] (setting [11]) of 29 mm. The inhibition zone in [6] (setting [12]) was 45 mm. Further, the antiproliferative activity result in series [7] is “excellent antiproliferative activities”. Moreover, the antiproliferative activity entry in series [8] is recorded as “excellent antiproliferative activities”. Also, in [9], the antimicrobial activity entry is “excellent antimicrobial activities”.

Source of the values: patent US11952354B1, “5-((2-isopropyl-5-methylphenoxy)methyl)-3-(naphthalen-2-yl)-1,2,4-oxadiazole as an anti-cancer and antimicrobial compound” (KING FAISAL UNIVERSITY, priority 2023, dated 2024).
